Results from patent publication US12172985B1, “6-(6-bromo-2-oxo-2H-chromen-3-yl)-4-(3-bromophenyl)-2-alkoxynicotinonitrile as antimicrobial compounds” (KING FAISAL UNIVERSITY, priority 2023, dated 2024).

Experiments:
Format in all cases: cell-based
[1] = test system: Chrysosporium keratinophilum; test: Agar plate disc-diffusion, antifungal inhibition zone; conditions: DMSO control zone subtracted
Description: (§1) The agar plate disc-diffusion method was applied. Sterilized filter papers (6 mm in diameter) were wetted with 10 μL of a solution of compounds 6-(6-bromo-2-oxo-2H-chromen-3-yl)-4-(3-bromophenyl)-2-ethoxynicotinonitrile 1 or 6-(6-bromo-2-oxo-2H-chromen-3-yl)-4-(3-bromophenyl)-2-methoxynicotinonitrile 2 to be tested, containing […], and the discs were allowed to air dry. The discs were then placed onto the surface of agar plates (nutrient agar for bacteria and Sabouraud's dextrose agar for fungi) seeded with the test organism. Each plate contained 15 mL of the agar medium, previously seeded with 0.2 mL of the broth culture of each organism pregrown for 18 hours. The plates were incubated at 37° C. for 48 hours, and 72 hours for fungi. The inhibition zones were measured in mm. Discs impregnated with DMSO were used as a control, and its inhibition zone was subtracted from the tested compound actual inhibition zone.
(§2) The results of the antimicrobial testing can be observed in Tables 1 and 2, below, using ciprofloxacin as a reference.

Aspergillus flavus = test: as above; conditions: DMSO control zone subtracted
Description: as §1, §2

Escherichia coli = test: Agar plate disc-diffusion, antibacterial inhibition zone; conditions: DMSO control zone subtracted
Description: as §1, §2

Pseudomonas aeruginosa = test: as above; conditions: DMSO control zone subtracted
Description: as §1, §2

Staphylococcus aureus = test: as above; conditions: DMSO control zone subtracted
Description: as §1, §2

Bacillus Cereus = test: as above; conditions: DMSO control zone subtracted
Description: as §1, §2

different microbes = test: Antimicrobial testing, overall conclusion; conditions: summary of Tables 1 and 2, bacteria and fungi
Description: as §1, §2
Their antibacterial activity was screened against gram positive bacteria namely Bacillus cereus and Staphylococcus aureus and gram-negative bacterial strains namely Pseudomonas aeruginosa and Escherichia coli, while their antifungal activity was screened against Aspergillus flavus and Chrysosporium keratinophilum.

[2] = A = concentration of comp. = 10,000 μL
[3] = B = concentration of comp. = 30,000 μL
[4] = C = concentration of comp. = 50,000 μL

| Structure (SMILES) | inhibition zone [1, 2] | inhibition zone [1, 3] | inhibition zone [1, 4] | inhibition zone (Aspergillus flavus; [2]) | inhibition zone (Aspergillus flavus; [3]) | inhibition zone (Aspergillus flavus; [4]) | inhibition zone (Escherichia coli; [2]) | inhibition zone (Escherichia coli; [3]) | inhibition zone (Escherichia coli; [4]) | inhibition zone (Pseudomonas aeruginosa; A = concentration of comp.) | inhibition zone (Pseudomonas aeruginosa; [3]) | inhibition zone (Pseudomonas aeruginosa; [4]) | inhibition zone (Staphylococcus aureus; [2]) | inhibition zone (Staphylococcus aureus; [3]) | inhibition zone (Staphylococcus aureus; [4]) | inhibition zone (Bacillus Cereus; A =) | inhibition zone (Bacillus Cereus; [3]) | inhibition zone (Bacillus Cereus; [4]) | antimicrobial activities (in words) (different microbes) |
| --- | --- | --- | --- | --- | --- | --- | --- | --- | --- | --- | --- | --- | --- | --- | --- | --- | --- | --- | --- |
| O=C(O)c1cn(C2CC2)c2cc(N3CCNCC3)c(F)cc2c1=O [Cip., ciprofloxacin, reference compound] | 29 mm | 30 mm | 53 mm | 29 mm | 30 mm | 42 mm | 30 mm | 39 mm | 60 mm | 29 mm | 30 mm | 53 mm | 43 mm | 44 mm | 53 mm | 29 mm | 30 mm | 42 mm |  |
| CCOc1nc(-c2cc3cc(Br)ccc3oc2=O)cc(-c2cccc(Br)c2)c1C#N [Compound 1, 6-(6-bromo-2-oxo-2H-chromen-3-yl)-4-(3-bromophenyl)-2-ethoxynicotinonitrile] | 25 mm | 28 mm | 39 mm | 20 mm | 24 mm | 34 mm | 28 mm | 37 mm | 48 mm | 24 mm | 28 mm | 38 mm | 16 mm | 19 mm | 33 mm | 23 mm | 26 mm | 36 mm | high antimicrobial activities |
| COc1nc(-c2cc3cc(Br)ccc3oc2=O)cc(-c2cccc(Br)c2)c1C#N [Compound 2, 6-(6-bromo-2-oxo-2H-chromen-3-yl)-4-(3-bromophenyl)-2-methoxynicotinonitrile] | 24 mm | 28 mm | 42 mm | 24 mm | 27 mm | 39 mm | 28 mm | 35 mm | 48 mm | 25 mm | 32 mm | 37 mm | 15 mm | 23 mm | 29 mm | 27 mm | 29 mm | 37 mm | high antimicrobial activities |
